Experiments:
Assay in all cases: relative viability (nuclei count vs DMSO), 5 days (fraction); higher = more cells survive
[1] = tested on: PC-14
Procedure, shortened: (§1)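 Medians of duplicate plates are given as relative viability. That measure is the nuclei count in treated wells divided by the count in vehicle wells. Counts were taken on 4× images of lung cancer cell lines in 1536-well plates, 5 days after pin-tool dosing the day after seeding with one drug alone or a fixed anchor-drug dose plus five library-drug doses (not always all listed) in √10 steps.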

[2] = tested on: LCLC-103H
Procedure, shortened: as §1

[3] = tested on: NCI-H322M
Procedure, shortened: as §1

[4] = tested on: NCI-H2126
Procedure, shortened: as §1

[5] = tested on: LXF-289
Procedure, shortened: as §1

[6] = tested on: NCI-H1666
Procedure, shortened: as §1

[7] = tested on: LU99A
Procedure, shortened: as §1

[8] = tested on: EKVX
Procedure, shortened: as §1

[9] = tested on: NCI-H23
Procedure, shortened: as §1

[10] = tested on: LK-2
Procedure, shortened: as §1

[11] = tested on: NCI-H2342
Procedure, shortened: as §1

[12] = tested on: SW 900
Procedure, shortened: as §1

[13] = tested on: EPLC-272H
Procedure, shortened: as §1

[14] = tested on: SK-LU-1
Procedure, shortened: as §1

[15] = tested on: NCI-H2405
Procedure, shortened: as §1

[16] = tested on: NCI-H1975
Procedure, shortened: as §1

[17] = tested on: EMC-BAC-2
Procedure, shortened: as §1

[18] = tested on: SW 1573
Procedure, shortened: as §1

[19] = tested on: ChaGo-K-1
Procedure, shortened: as §1

[20] = tested on: RERF-LC-KJ
Procedure, shortened: as §1

[21] = tested on: HCC-827
Procedure, shortened: as §1

[22] = tested on: HCC-78
Procedure, shortened: as §1

SMILES: CCN(CC)CCCCNc1ncc2cc(-c3cc(OC)cc(OC)c3)c(NC(=O)NC(C)(C)C)nc2n1 + CC(=O)c1c(C)c2cnc(Nc3ccc(N4CCNCC4)cn3)nc2n(C2CCCC2)c1=O [Palbociclib] (partner 0.5 µM)
- relative viability ([1]; first compound 0.01 µM): 0.599
- relative viability ([1]; first compound 0.03162 µM): 0.467
- relative viability ([1]; first compound 0.1 µM): 0.654
- relative viability ([1]; first compound 0.3162 µM): 0.564
- relative viability ([1]; first compound 1 µM): 0.56
- relative viability ([2]; first compound 0.01 µM): 0.473
- relative viability ([2]; first compound 0.03162 µM): 0.423
- relative viability ([2]; first compound 0.1 µM): 0.457
- relative viability ([2]; first compound 0.3162 µM): 0.48
- relative viability ([2]; first compound 1 µM): 0.466
- relative viability ([3]; first compound 0.01 µM): 0.516
- relative viability ([3]; first compound 0.03162 µM): 0.45
- relative viability ([3]; first compound 0.1 µM): 0.508
- relative viability ([3]; first compound 0.3162 µM): 0.504
- relative viability ([3]; first compound 1 µM): 0.474
- relative viability ([4]; first compound 0.01 µM): 0.353
- relative viability ([4]; first compound 0.03162 µM): 0.37
- relative viability ([4]; first compound 0.1 µM): 0.399
- relative viability ([4]; first compound 0.3162 µM): 0.345
- relative viability ([4]; first compound 1 µM): 0.355
- relative viability ([5]; first compound 0.01 µM): 0.628
- relative viability ([5]; first compound 0.03162 µM): 0.581
- relative viability ([5]; first compound 0.1 µM): 0.673
- relative viability ([5]; first compound 0.3162 µM): 0.61
- relative viability ([5]; first compound 1 µM): 0.559
- relative viability ([6]; first compound 0.01 µM): 0.666
- relative viability ([6]; first compound 0.03162 µM): 0.626
- relative viability ([6]; first compound 0.1 µM): 0.613
- relative viability ([6]; first compound 0.3162 µM): 0.649
- relative viability ([6]; first compound 1 µM): 0.613
- relative viability ([7]; first compound 0.01 µM): 0.364
- relative viability ([7]; first compound 0.03162 µM): 0.393
- relative viability ([7]; first compound 0.1 µM): 0.457
- relative viability ([7]; first compound 0.3162 µM): 0.446
- relative viability ([7]; first compound 1 µM): 0.338
- relative viability ([8]; first compound 0.03162 µM): 0.406
- relative viability ([8]; first compound 0.1 µM): 0.31
- relative viability ([8]; first compound 0.3162 µM): 0.817
- relative viability ([8]; first compound 1 µM): 0.413
- relative viability ([9]; first compound 0.01 µM): 0.534
- relative viability ([9]; first compound 0.03162 µM): 0.451
- relative viability ([9]; first compound 0.1 µM): 0.598
- relative viability ([9]; first compound 0.3162 µM): 0.547
- relative viability ([9]; first compound 1 µM): 0.466
- relative viability ([10]; first compound 0.01 µM): 0.65
- relative viability ([10]; first compound 0.03162 µM): 0.66
- relative viability ([10]; first compound 0.1 µM): 0.637
- relative viability ([10]; first compound 0.3162 µM): 0.502
- relative viability ([10]; first compound 1 µM): 0.156
- relative viability ([11]; first compound 0.01 µM): 0.514
- relative viability ([11]; first compound 0.03162 µM): 0.514
- relative viability ([11]; first compound 0.1 µM): 0.528
- relative viability ([11]; first compound 0.3162 µM): 0.548
- relative viability ([11]; first compound 1 µM): 0.556
- relative viability ([12]; first compound 0.01 µM): 0.653
- relative viability ([12]; first compound 0.03162 µM): 0.535
- relative viability ([12]; first compound 0.1 µM): 0.602
- relative viability ([12]; first compound 0.3162 µM): 0.517
- relative viability ([12]; first compound 1 µM): 0.483
- relative viability ([13]; first compound 0.01 µM): 0.286
- relative viability ([13]; first compound 0.1 µM): 0.33
- relative viability ([13]; first compound 0.3162 µM): 0.284
- relative viability ([13]; first compound 1 µM): 0.339
- relative viability ([14]; first compound 0.01 µM): 0.457
- relative viability ([14]; first compound 0.03162 µM): 0.387
- relative viability ([14]; first compound 0.1 µM): 0.359
- relative viability ([14]; first compound 0.3162 µM): 0.434
- relative viability ([14]; first compound 1 µM): 0.309
- relative viability ([15]; first compound 0.01 µM): 0.567
- relative viability ([15]; first compound 0.03162 µM): 0.564
- relative viability ([15]; first compound 0.1 µM): 0.539
- relative viability ([15]; first compound 0.3162 µM): 0.534
- relative viability ([15]; first compound 1 µM): 0.52
- relative viability ([16]; first compound 0.01 µM): 0.608
- relative viability ([16]; first compound 0.03162 µM): 0.498
- relative viability ([16]; first compound 0.1 µM): 0.589
- relative viability ([16]; first compound 0.3162 µM): 0.697
- relative viability ([16]; first compound 1 µM): 0.475
- relative viability ([17]; first compound 0.03162 µM): 0.501
- relative viability ([17]; first compound 0.1 µM): 0.525
- relative viability ([17]; first compound 0.3162 µM): 0.536
- relative viability ([17]; first compound 1 µM): 0.527
- relative viability ([18]; first compound 0.01 µM): 0.377
- relative viability ([18]; first compound 0.03162 µM): 0.407
- relative viability ([18]; first compound 0.1 µM): 0.519
- relative viability ([18]; first compound 0.3162 µM): 0.398
- relative viability ([18]; first compound 1 µM): 0.331
- relative viability ([19]; first compound 0.01 µM): 0.98
- relative viability ([19]; first compound 0.03162 µM): 0.915
- relative viability ([19]; first compound 0.1 µM): 1.08
- relative viability ([19]; first compound 0.3162 µM): 0.997
- relative viability ([19]; first compound 1 µM): 0.823
- relative viability ([20]; first compound 0.01 µM): 1.07
- relative viability ([20]; first compound 0.03162 µM): 1.12
- relative viability ([20]; first compound 0.1 µM): 1.2
- relative viability ([20]; first compound 0.3162 µM): 1.13
- relative viability ([20]; first compound 1 µM): 1.05
- relative viability ([21]; first compound 0.01 µM): 0.49
- relative viability ([21]; first compound 0.03162 µM): 0.473
- relative viability ([21]; first compound 0.1 µM): 0.507
- relative viability ([21]; first compound 0.3162 µM): 0.644
- relative viability ([21]; first compound 1 µM): 0.454
- relative viability ([22]; first compound 0.01 µM): 0.465
- relative viability ([22]; first compound 0.03162 µM): 0.448
- relative viability ([22]; first compound 0.1 µM): 0.525
- relative viability ([22]; first compound 0.3162 µM): 0.45
- relative viability ([22]; first compound 1 µM): 0.465
